Results published in patent publication US20230279025A1, “KRAS G12D INHIBITORS” (Mirati Therapeutics, Inc., priority 2020, published 2023).

Biological target: KRas G12D (Homo sapiens (Human), UniProt P01116, G12D)
Assay: KRas G12D Binding Assay (TR-FRET displacement of Cy5 labelled tracer)
Settings: GDP-loaded KRAS G12D (amino acids 1:169), 60 minute incubation at 22° C.
Description: After a 60 minute incubation at 22° C., the reaction was measured using a PerkinElmer EnVision multimode plate reader via TR-FRET dual wavelength detection, and the percent of control (POC) calculated using a ratiometric emission factor. […] The POC values were fit to a 4-parameter logistic curve and the IC50 value was determined as the concentration where the curve crosses 50 POC.
ND stands for “not determined.”

KRas G12D, sequence (P01116 other isoform, or with tags, fused parts or gaps G12D): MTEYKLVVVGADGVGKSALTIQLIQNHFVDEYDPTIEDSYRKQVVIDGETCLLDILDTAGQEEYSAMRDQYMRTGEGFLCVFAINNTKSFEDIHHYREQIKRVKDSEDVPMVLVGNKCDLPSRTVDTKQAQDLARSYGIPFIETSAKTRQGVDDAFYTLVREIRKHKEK

Row | SMILES | IC50 [nM]
1 | CC1(C)CN2C[C@H](F)CC2(COc2nc(N3CC4CCC(C3)N4)c3cnc(-c4cccc5cccc(Cl)c45)c(F)c3n2)C1 (mixture of isomers) [Example 325, 4-((1R,5S)-3,8-diazabicyclo[3.2.1]octan-3-yl)-7-(8-chloronaphthalen-1-yl)-8-fluoro-2-((6-fluoro-2,2-dimethyltetrahydro-1H-pyrrolizin-7a(5H)-yl)methoxy)pyrido[4,3-d]pyrimidine (racemic, trans)] | 141
2 | CCC#Cc1cccc2cccc(-c3ncc4c(N5C[C@H]6CC[C@@H](C5)N6)nc(OCC56CCCN5CCC6)nc4c3F)c12 [Example 242, 4-((1R,5S)-3,8-diazabicyclo[3.2.1]octan-3-yl)-7-(8-(but-1-yn-1-yl)naphthalen-1-yl)-8-fluoro-2-((tetrahydro-1H-pyrrolizin-7a(5H)-yl)methoxy)pyrido[4,3-d]pyrimidine] | 82.2
3 | Fc1c(-c2cccc(Cl)c2C(F)(F)F)ncc2c(N3C[C@H]4CC[C@@H](C3)N4)nc(OCC34CCCN3CCC4)nc12 [Example 328, 4-((1R,5S)-3,8-diazabicyclo[3.2.1]octan-3-yl)-7-(3-chloro-2-(trifluoromethyl)phenyl)-8-fluoro-2-((tetrahydro-1H-pyrrolizin-7a(5H)-yl)methoxy)pyrido[4,3-d]pyrimidine] | 9.4
4 | CC1(C)CN2CCCC2(COc2nc(N3CC4CCC(C3)N4)c3cnc(-c4cccc5cccc(Cl)c45)c(F)c3n2)C1 [Example 228, 4-((1R,5S)-3,8-diazabicyclo[3.2.1]octan-3-yl)-7-(8-chloronaphthalen-1-yl)-2-((2,2-dimethyltetrahydro-1H-pyrrolizin-7a(5H)-yl)methoxy)-8-fluoropyrido[4,3-d]pyrimidine bis-2,2,2-trifluoroacetate] | 87.7
5 | Fc1c(-c2cccc3cccc(Cl)c23)ncc2c(N3C[C@H]4CC[C@@H](C3)N4)nc(OCC34CCCN3CCOC4)nc12 (stereo partly drawn) [Example 200, 8a-(((4-((1R,5S)-3,8-diazabicyclo[3.2.1]octan-3-yl)-7-(8-chloronaphthalen-1-yl)-8-fluoropyrido[4,3-d]pyrimidin-2-yl)oxy)methyl)hexahydro-1H-pyrrolo[2,1-c][1,4]oxazine] | 230
6 | O=C(O[C@@H]1CN2CCC[C@]2(COc2nc(N3C[C@H]4CC[C@@H](C3)N4)c3cnc(-c4cccc5cccc(Cl)c45)c(F)c3n2)C1)N1CCOCC1 [Example 436, (2S,7aR)-7a-(((4-((1R,5S)-3,8-diazabicyclo[3.2.1]octan-3-yl)-7-(8-chloronaphthalen-1-yl)-8-fluoropyrido[4,3-d]pyrimidin-2-yl)oxy)methyl)hexahydro-1H-pyrrolizin-2-yl morpholine-4-carboxylate] | 48.3
7 | Cc1cccc(O)c1-c1ncc2c(N3CC4CCC(C3)N4)nc(OC[C@@]34CCCN3C[C@H](F)C4)nc2c1F (racemic) [Example 377, 2-(4-((1R,5S)-3,8-diazabicyclo[3.2.1]octan-3-yl)-8-fluoro-2-((2-fluorotetrahydro-1H-pyrrolizin-7a(5H)-yl)methoxy)pyrido[4,3-d]pyrimidin-7-yl)-3-methylphenol] | 417
8 | Fc1c(-c2ccccc2[C@@H]2C[C@H]2F)ncc2c(N3C[C@H]4CC[C@@H](C3)N4)nc(OCC34CCCN3CCC4)nc12 (relative stereo) [Example 285, 4-((1R,5S)-3,8-diazabicyclo[3.2.1]octan-3-yl)-8-fluoro-7-(2-(trans-2-fluorocyclopropyl)phenyl)-2-((hexahydro-1H-pyrrolizin-7a-yl)methoxy)pyrido[4,3-d]pyrimidine] | 279
9 | COc1cccc2cccc(-c3ncc4c(N5C[C@H]6CC[C@@H](C5)N6)nc(OCC56CCCN5CCC6)nc4c3F)c12 [Example 236, 4-((1R,5S)-3,8-diazabicyclo[3.2.1]octan-3-yl)-8-fluoro-2-((hexahydro-1H-pyrrolizin-7a-yl)methoxy)-7-(8-methoxynaphthalen-1-yl)pyrido[4,3-d]pyrimidine] | 25
10 | Fc1c(-c2cccc3c2CC2CC32)ncc2c(N3CC4CCC(C3)N4)nc(OC[C@@]34CCCN3C[C@H](F)C4)nc12 (stereo partly drawn) [Example 438, 4-(3,8-diazabicyclo[3.2.1]octan-3-yl)-8-fluoro-2-(((2R,7aS)-2-fluorotetrahydro-1H-pyrrolizin-7a(5H)-yl)methoxy)-7-(1,1a,6,6a-tetrahydrocyclopropa[a]inden-5-yl)pyrido[4,3-d]pyrimidine] | 20.1
11 | Cc1ccc2cccc(-c3ncc4c(N5C[C@H]6CC[C@@H](C5)N6)nc(OC[C@@H]5CCCN5C)nc4c3F)c2c1 [Example 321, 4-((1R,5S)-3,8-diazabicyclo[3.2.1]octan-3-yl)-8-fluoro-7-(7-methylnaphthalen-1-yl)-2-(((S)-1-methylpyrrolidin-2-yl)methoxy)pyrido[4,3-d]pyrimidine] | 613
12 | OCC#Cc1cccc2cccc(-c3ncc4c(N5C[C@H]6CC[C@@H](C5)N6)nc(OCC56CCCN5CCC6)nc4c3F)c12 [Example 193, 3-(8-(4-((1R,5S)-3,8-diazabicyclo[3.2.1]octan-3-yl)-8-fluoro-2-((tetrahydro-1H-pyrrolizin-7a(5H)-yl)methoxy)pyrido[4,3-d]pyrimidin-7-yl)naphthalen-1-yl)prop-2-yn-1-ol] | 12.5
13 | CC(C)c1ccc(O)cc1-c1ncc2c(N3CC4CCC(C3)N4)nc(OC[C@@]34CCCN3C[C@H](F)C4)nc2c1F (stereo in doubt) [Example 399, 3-(4-((1R,5S)-3,8-diazabicyclo[3.2.1]octan-3-yl)-8-fluoro-2-((2-fluorotetrahydro-1H-pyrrolizin-7a(5H)-yl)methoxy)pyrido[4,3-d]pyrimidin-7-yl)-4-isopropylphenol] | 2.7
14 | O=C(NCCOc1nc(N2C[C@H]3CC[C@@H](C2)N3)c2cnc(-c3cc(O)cc4ccccc34)c(F)c2n1)c1ccc(S(=O)(=O)F)cc1 [Example 212, 4-((2-((4-((1R,5S)-3,8-diazabicyclo[3.2.1]octan-3-yl)-8-fluoro-7-(3-hydroxynaphthalen-1-yl)pyrido[^4,3-d]pyrimidin-2-yl)oxy)ethyl)carbamoyl)benzenesulfonyl fluoride bis(2,2,2-trifluoroacetate)] | 1220
15 | CN1C[C@H](NC(=O)c2cccc(C=O)c2)C[C@H]1COc1nc(N2C[C@H]3CC[C@@H](C2)N3)c2cnc(-c3cccc4cccc(Cl)c34)c(F)c2n1 [Example 354, N-((3R,5S)-5-(((4-((1R,5S)-3,8-diazabicyclo[3.2.1]octan-3-yl)-7-(8-chloronaphthalen-1-yl)-8-fluoropyrido[4,3-d]pyrimidin-2-yl)oxy)methyl)-1-methylpyrrolidin-3-yl)-3-formylbenzamide] | 368
16 | Fc1c(-c2cccc(Cl)c2OC(F)(F)F)ncc2c(N3CC4CCC(C3)N4)nc(OCC34CCCN3CCC4)nc12 [Example 230, 4-((1R,5S)-3,8-diazabicyclo[3.2.1]octan-3-yl)-7-(3-chloro-2-(trifluoromethoxy)phenyl)-8-fluoro-2-((tetrahydro-1H-pyrrolizin-7a(5H)-yl)methoxy)pyrido[4,3-d]pyrimidine bis(2,2,2-trifluoroacetate] | 1430
17 | Cn1ccc(CCOc2nc(N3C[C@H]4CC[C@@H](C3)N4)c3cnc(-c4cccc5cccc(Cl)c45)c(F)c3n2)n1 [Example 145, 4-((1R,5S)-3,8-diazabicyclo[3.2.1]octan-3-yl)-7-(8-chloronaphthalen-1-yl)-8-fluoro-2-(2-(1-methyl-1H-pyrazol-3-yl)ethoxy)pyrido[4,3-d]pyrimidine] | 5000
18 | Fc1c(-c2cccc(Cl)c2C2CC2)ncc2c(N3CC4CCC(C3)N4)nc(OCC34CCCN3C[C@H](F)C4)nc12 (mixture of isomers) [Example 342, 4-((1R,5S)-3,8-diazabicyclo[3.2.1]octan-3-yl)-7-(3-chloro-2-cyclopropylphenyl)-8-fluoro-2-((2-fluorotetrahydro-1H-pyrrolizin-7a(5H)-yl)methoxy)pyrido[4,3-d]pyrimidine (racemic, trans)] | 3.4
19 | Fc1c(-c2cccc(Cl)c2Cl)ncc2c(N3C[C@H]4CC[C@@H](C3)N4)nc(OCC34CCCN3CCC4)nc12 [Example 277, 4-((1R,5S)-3,8-diazabicyclo[3.2.1]octan-3-yl)-7-(2,3-dichlorophenyl)-8-fluoro-2-((hexahydro-1H-pyrrolizin-7a-yl)methoxy)pyrido[4,3-d]pyrimidine] | 35.2
20 | Cc1cccc(-c2ncc3c(N4C[C@H]5CC[C@@H](C4)N5)nc(OCC45CCCN4CCC5)nc3c2F)c1C [Example 275, 4-((1R,5S)-3,8-diazabicyclo[3.2.1]octan-3-yl)-7-(2,3-dimethylphenyl)-8-fluoro-2-((hexahydro-1H-pyrrolizin-7a-yl)methoxy)pyrido[4,3-d]pyrimidine] | 53.8
21 | Fc1c(-c2ccccc2Cl)ncc2c(N3C[C@H]4CC[C@@H](C3)N4)nc(OCC34CCCN3CCC4)nc12 [Example 310, 4-((1R,5S)-3,8-diazabicyclo[3.2.1]octan-3-yl)-7-(2-chlorophenyl)-8-fluoro-2-((hexahydro-1H-pyrrolizin-7a-yl)methoxy)pyrido[4,3-d]pyrimidine] | 559
22 | Cc1cccc2cccc(-c3ncc4c(N5C[C@H]6CC[C@@H](C5)N6)nc(OCC56CCCN5CCC6)nc4c3F)c12 [Example 334, 4-((1R,5S)-3,8-diazabicyclo[3.2.1]octan-3-yl)-8-fluoro-7-(8-methylnaphthalen-1-yl)-2-((tetrahydro-1H-pyrrolizin-7a(5H)-yl)methoxy)pyrido[4,3-d]pyrimidine] | 10
23 | CC(C)c1cccc(C(C)C)c1-c1ncc2c(N3C[C@H]4CC[C@@H](C3)N4)nc(OCC34CCCN3CC(F)C4)nc2c1F (stereo partly drawn) [Example 394, 4-((1R,5S)-3,8-diazabicyclo[3.2.1]octan-3-yl)-7-(2,6-diisopropylphenyl)-8-fluoro-2-((2-fluorotetrahydro-1H-pyrrolizin-7a(5H)-yl)methoxy)pyrido[4,3-d]pyrimidine] | 2500
